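Interpolation was linear, between the two tested concentrations surrounding the appropriate level; five concentrations were tested over 48 hours in 96-well plates. GI50 marks 50% less growth.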 Active and inactive are the calls of the source. Cut-off read from the data, not from the text of the source: active = GI50 up to about 1.1 µM and inactive = higher.
How the values were obtained:
Experiment in all cases: NCI tumour cell line growth inhibition, 48 h
[1] = system: CCRF-CEM
[2] = system: SW-620
[3] = system: NCI-H23
[4] = system: NCI-H226
[5] = system: OVCAR-5
[6] = system: HOP-62
[7] = system: HOP-92
[8] = system: EKVX
[9] = system: HCT-116
[10] = system: M19-MEL
[11] = system: SF-295
[12] = system: MOLT-4
[13] = system: UACC-62
[14] = system: K562
[15] = system: OVCAR-8
[16] = system: SK-MEL-28
[17] = system: SNB-75
[18] = system: OVCAR-3

Measured: GI50

CCCCCCCCCCCC(=O)OCC1OC(n2cc(F)c(=O)[nH]c2=O)C(NC(=O)OCc2ccccc2)C(OC(=O)CCCCCCCCCCC)C1O (stereo not drawn)
inactive: [1] > 100 µM | [2] > 100 µM | [3] > 100 µM | [4] > 100 µM | [5] > 100 µM | [6] > 100 µM | [7] > 100 µM | [8] > 100 µM | [9] > 100 µM | [10] > 100 µM | [11] > 100 µM | [12] > 100 µM | [13] > 100 µM | [14] > 100 µM | [15] > 100 µM | [16] > 100 µM | [17] > 100 µM | [18] > 100 µM

CCCCn1/c(=N/C(=S)N(C)C)ss/c1=N\C(=S)N(C)C
inactive: [1] > 100 µM | [2] > 100 µM | [3] > 100 µM | [4] 7.28 µM | [5] > 100 µM | [6] > 100 µM | [7] > 100 µM | [8] > 100 µM | [9] > 100 µM | [10] > 100 µM | [11] > 100 µM | [12] > 100 µM | [13] > 100 µM | [14] > 100 µM | [15] > 100 µM | [16] > 100 µM | [17] > 100 µM

C1=C2/CC[C@H](Sc3ccccc3)C2C2(CCCCC/1)OCCO2 (stereo partly drawn)
inactive: [1] 28.6 µM | [2] 28.1 µM | [3] 16.2 µM | [4] 23.6 µM | [6] 19.3 µM | [7] 3.72 µM | [8] 32.9 µM | [9] 16.5 µM | [10] 15.6 µM | [11] 27.5 µM | [12] 16.6 µM | [13] 16.5 µM | [14] 24.7 µM | [15] 39.3 µM | [16] 30.2 µM | [17] 23.9 µM | [18] 18.7 µM

O=C(O)c1ccccc1NC(=O)C1CCCCC1
inactive: [1] > 100 µM | [2] > 100 µM | [4] > 100 µM | [5] > 100 µM | [6] > 100 µM | [7] 6.08 µM | [8] > 100 µM | [9] > 100 µM | [10] > 100 µM | [11] > 100 µM | [12] > 100 µM | [13] > 100 µM | [14] > 100 µM | [15] > 100 µM | [16] > 100 µM | [17] > 100 µM | [18] > 100 µM

CN(C)c1ccc(/C=C2\CNC/C(=C\c3ccc(N(C)C)cc3)C2=O)cc1
inactive: [1] 25.8 µM | [3] > 100 µM | [4] 32.7 µM | [5] > 100 µM | [6] > 100 µM | [7] 15.6 µM | [8] > 100 µM | [9] 16 µM | [10] 18.4 µM | [11] 76.4 µM | [12] 24.2 µM | [13] 34.5 µM | [14] 24.2 µM | [15] 24.2 µM | [16] 22.8 µM | [17] 11.1 µM | [18] 38.8 µM

O=C(CCC1C(=O)NC(=S)NC1=O)c1ccc2ccccc2c1
inactive: [1] > 100 µM | [2] > 100 µM | [3] > 100 µM | [4] > 100 µM | [5] > 100 µM | [6] > 100 µM | [7] > 100 µM | [8] > 100 µM | [9] > 100 µM | [10] > 100 µM | [11] > 100 µM | [12] > 100 µM | [13] > 100 µM | [14] > 100 µM | [15] > 100 µM | [16] > 100 µM | [17] > 100 µM | [18] > 100 µM

CN[C@@H](C)[C@H](NC)c1ccccc1
inactive: [1] > 100 µM | [2] > 100 µM | [3] > 100 µM | [4] > 100 µM | [7] > 100 µM | [8] > 100 µM | [9] > 100 µM | [10] > 100 µM | [11] > 100 µM | [12] > 100 µM | [13] > 100 µM | [14] > 100 µM | [15] > 100 µM | [16] > 100 µM | [17] > 100 µM | [18] > 100 µM

C[C@@H]1OC2(O)[C@H]3CCCN3S(=O)(=O)CCN2C1=O (stereo partly drawn)
inactive: [1] > 100 µM | [2] > 100 µM | [3] > 100 µM | [4] > 100 µM | [5] > 100 µM | [6] > 100 µM | [7] > 100 µM | [8] > 100 µM | [9] > 100 µM | [10] > 100 µM | [11] > 100 µM | [12] > 100 µM | [13] > 100 µM | [14] > 100 µM | [15] > 100 µM | [16] > 100 µM | [17] > 100 µM | [18] > 100 µM

COc1ccc(NC(=O)C(=O)Cc2nc3ccc([N+](=O)[O-])cc3nc2O)c(OC)c1
inactive: [1] > 100 µM | [2] > 100 µM | [3] > 100 µM | [4] > 100 µM | [5] > 100 µM | [7] > 100 µM | [8] > 100 µM | [9] > 100 µM | [10] > 100 µM | [11] > 100 µM | [12] > 100 µM | [13] > 100 µM | [14] > 100 µM | [16] > 100 µM | [17] > 100 µM | [18] > 100 µM

CCN(CC)CCSc1c2ccccc2nc2cc(NCC(=O)Nc3ccccc3-c3ccccc3NC(=O)CNc3ccc4c(SCCN(CC)CC)c5ccccc5nc4c3)ccc12
inactive: [1] 24.9 µM | [2] > 100 µM | [3] > 100 µM | [4] > 100 µM | [5] > 100 µM | [6] > 100 µM | [7] > 100 µM | [8] > 100 µM | [9] > 78.3 µM | [10] 23 µM | [11] > 100 µM | [12] 23.2 µM | [13] > 100 µM | [14] 24 µM | [15] > 100 µM | [16] > 100 µM | [17] > 77.4 µM | [18] > 100 µM

COc1ccc([Se]c2ccc(OC)cc2)cc1
inactive: [1] 58.9 µM | [2] > 100 µM | [3] 56.2 µM | [4] 17.4 µM | [6] > 100 µM | [7] 23.9 µM | [9] 55.2 µM | [10] 69.7 µM | [11] > 100 µM | [12] 41.5 µM | [13] > 100 µM | [14] 60.1 µM | [15] > 100 µM | [16] > 100 µM | [17] 19.3 µM | [18] 76.6 µM
